{
  "source": "patent US20130217579A1",
  "about": "“Pesticide Preparations Containing N-Substituted 2-Pyrrolidone-4-Carboxylic Acid Esters” (CLARIANT FINANCE (BVI) LIMITED, priority 2010, published 2013)",
  "assay": "Solubilities of pesticides in compounds of formula (1)",
  "type": "physicochemical",
  "experimental": "The solubilities of various pesticides were determined in various compounds of formula (1) at 25° C. All data are in % by weight (Table 1).",
  "data": [
    {"compound": "CCCCOC(=O)C1CC(=O)N(C)C1", "note": "(centres unmarked) [Example 3, N-butyl N-methyl-2-pyrrolidone-4-carboxylate]", "values": [
      {"measurement": "Solubility of Pendimethalin in compound of formula (1)", "result": 38.9, "unit": "% by weight"},
      {"measurement": "Solubility of Tebuconazole in compound of formula (1)", "result": 37.0, "unit": "% by weight"},
      {"measurement": "Solubility of Triadimefon in compound of formula (1)", "result": 43.0, "unit": "% by weight"},
      {"measurement": "Solubility of Trifloxystrobin in compound of formula (1)", "result": 30.1, "unit": "% by weight"},
      {"measurement": "Solubility of Trifluralin in compound of formula (1)", "result": 57.4, "unit": "% by weight"}
    ]}
  ]
}
